Results from patent US20220016101A1 (ACADIA Pharmaceuticals Inc., priority 2018, published 2022).

Test system: patients with MDD and an inadequate response to an SSRI or SNRI
Experiment: Massachusetts General Hospital Sexual Functioning Index (MGH-SFI), Study ACP-103-042
Format: in vivo, human
Text: “Massachusetts General Hospital Sexual Functioning Index (MGH-SFI)” is described, for instance, in Labbate and Lare, 2001, Psychother Psychosom. 70(4):221-225. This is a patient facing questionnaire that quantifies sexual dysfunction into 5 functional domains (“interest in sex,” “sexual arousal,” “ability to achieve orgasm,” “ability to maintain erection” (males only), and “sexual satisfaction”). Patients rate each item using a 6-point scale ranging from 1 (good function) to 6 (poor function). High scores indicate poor sexual functioning. […] The determination of the subject's status and eligibility for randomization in Stage 2 was made in a double-blind manner. […] Sexual functioning was assessed using the Massachusetts General Hospital Sexual Functioning Index or MGH-SFI (Labbate and Lare, 2001, Psychother Psychosom. 70(4):221-225). This is a patient facing questionnaire that quantifies sexual dysfunction into 5 functional domains (“interest in sex,” “sexual arousal,” “ability to achieve orgasm,” “ability to maintain erection” [malesonly], and “sexual satisfaction”). Patients rate each item using a 6-point scale ranging from 1 (good function) to 6 (poor function). The time frame for this scale is the past month. This scale was administered at baseline and Week 5 in both stages of the study. High scores indicate poor sexual functioning. In ACP-103-042 the mean scores for MGH-SFI at Baseline was calculated over all 5 domains for males and the 4 domains for females. For MGH-SFI (follow-up version) at Study Weeks 5 and 10, the mean was calculated in the same way as MGH-SFI at Baseline. […] Tables 10-27 summarize the detailed data of MGH-SFI individual items of the overall study group (Tables 10-15), the subgroup of age of <=50 (Tables 16-21) and the subgroup of age of >50 (Table 21-26). In Tables 9-26, ANCOVA=analysis of covariance; OC=observed cases; LSM=least squares mean; CI=confidence interval; SD=standard deviation; SE=standard error. Stage 1: Baseline=Study Week 0, Week 5=Study Week 5; Stage 2: Baseline=Study Week 5, Week 5=Study Weeks 10. LSM from the stage-specific ANCOVA analysis with the change from baseline as the outcome, treatment group as a factor, and the corresponding Baseline value as a covariate. 2-sided p-value for treatment difference from the stage-specific ANCOVA analysis. An treatment effect size (Cohen's d) is calculated using the formula: Effect Size=Least Square mean difference between PIM and PBO/SD. The corresponding 95% confidence interval for an effect size is calculated based on the theoretical probability distribution of the effect size. […] Tables 10-15 and 28-38 summarize the detailed data of MGH-SFI individual items of the overall study group (Tables 10-15), the female subgroup (Tables 33-37) and the male subgroup (Table 38-43). An treatment effect size (Cohen's d) is calculated using the formula: Effect Size=Least Square mean difference between PIM and PBO/SD. The corresponding 95% confidence interval for an effect size is calculated based on the theoretical probability distribution of the effect size. In Tables 10-15 and 28-38, ANCOVA=analysis of covariance; OC=observed cases; LSM=least squares mean; CI=confidence interval; SD=standard deviation; SE=standard error. Stage 1: Baseline=Study Week 0, Week 5=Study Week 5; Stage 2: Baseline=Study Week 5, Week 5=Study Weeks 10. LSM from the stage-specific ANCOVA analysis with the change from baseline as the outcome, treatment group as a factor, and the corresponding Baseline value as a covariate. 2-sided p-value for treatment difference from the stage-specific ANCOVA analysis. An treatment effect size (Cohen's d) is calculated using the formula: Effect Size=Least Square mean difference between PIM and PBO/SD. The corresponding 95% confidence interval for an effect size is calculated based on the theoretical probability distribution of the effect size.

[1] = male subgroup, Stage 2, PIM 34 mg
[2] = male subgroup, Stage 2, PIM 34 mg vs placebo, change from baseline to Week 5
[3] = male subgroup, Stage 2, PIM 34 mg, Week 5
[4] = subgroup <=50 years old, Stage 1, PIM 34 mg

CC(C)COc1ccc(CNC(=O)N(Cc2ccc(F)cc2)C2CCN(C)CC2)cc1 [pimavanserin, N-(4-Fluorophenylmethyl)-N-(1-methylpiperidin-4-yl)-N′-(4-(2-methylpropyloxy)phenylmethyl)carbamide]
MGH-SFI Item 02: Ability to Get Sexually Aroused or Excited, Change from Baseline to Week 5, Median [1]: −1.0
MGH-SFI Item 03: Ability to Achieve Orgasm, Change from Baseline to Week 5, Mean (SE) [1]: −0.8 (0.36)
MGH-SFI Item 03: Ability to Achieve Orgasm, Change from Baseline to Week 5, Median [1]: 0.0
MGH-SFI Item 04: (Men) Ability to Get and Maintain an Erection, Change from Baseline to Week 5, Mean (SE) [1]: −1.0 (0.41)
MGH-SFI Item 04: (Men) Ability to Get and Maintain an Erection, Change from Baseline to Week 5, Median [1]: −1.0
MGH-SFI Item 05: Overall Sexual Satisfaction, Change from Baseline to Week 5, Mean (SE) [1]: −1.4 (0.50)
MGH-SFI Item 05: Overall Sexual Satisfaction, Change from Baseline to Week 5, Median [1]: −1.0
MGH-SFI Item 06: Overall Improvement Since Last Medication Change, Effect Size (Cohen's d) (male subgroup, Stage 2, PIM 34 mg vs placebo, Week 5): 0.405
MGH-SFI Item 02: Ability to Get Sexually Aroused or Excited, Effect Size (Cohen's d) [2]: −0.154
MGH-SFI Item 03: Ability to Achieve Orgasm, Effect Size (Cohen's d) [2]: 0.497
MGH-SFI Item 04: (Men) Ability to Get and Maintain an Erection, Effect Size (Cohen's d) [2]: 0.701
MGH-SFI Item 05: Overall Sexual Satisfaction, Effect Size (Cohen's d) [2]: 0.511
MGH-SFI Item 02: Ability to Get Sexually Aroused or Excited, Week 5, Mean (SE) [3]: 3.6 (0.47)
MGH-SFI Item 02: Ability to Get Sexually Aroused or Excited, Week 5, Median [3]: 4.0
MGH-SFI Item 03: Ability to Achieve Orgasm, Week 5, Mean (SE) [3]: 3.6 (0.56)
MGH-SFI Item 03: Ability to Achieve Orgasm, Week 5, Median [3]: 4.0
MGH-SFI Item 04: (Men) Ability to Get and Maintain an Erection, Week 5, Mean (SE) [3]: 3.1 (0.54)
MGH-SFI Item 04: (Men) Ability to Get and Maintain an Erection, Week 5, Median [3]: 4.0
MGH-SFI Item 05: Overall Sexual Satisfaction, Week 5, Mean (SE) [3]: 3.0 (0.53)
MGH-SFI Item 05: Overall Sexual Satisfaction, Week 5, Median [3]: 3.0
MGH-SFI Item 06: Overall Improvement Since Last Medication Change, Week 5, Mean (SE) [3]: 3.7 (0.53)
MGH-SFI Item 06: Overall Improvement Since Last Medication Change, Week 5, Median [3]: 4.0
MGH-SFI 01: Interest in Sex, Effect Size (Cohen's d) (male subgroup, Stage 2, positive = pimavanserin better than placebo): 0.174
MGH-SFI Items 1, 2, 3, and 5 mean change from baseline to Week 5 vs placebo (overall study group): significantly greater
MGH-SFI 04: (Men) Ability to Get and Maintain an Erection, Change from Baseline to Week 5 Mean (SE) [4]: −1.7 (1.45)
MGH-SFI 04: (Men) Ability to Get and Maintain an Erection, Change from Baseline to Week 5 Median [4]: −2.0
MGH-SFI 04: (Men) Ability to Get and Maintain an Erection, Week 5 Mean (SE) [4]: 2.3 (0.67)
MGH-SFI 04: (Men) Ability to Get and Maintain an Erection, Week 5 Median [4]: 3.0
MGH-SFI 05: Overall Sexual Satisfaction, Change from Baseline to Week 5 Mean (SE) [4]: −0.5 (0.35)
MGH-SFI 05: Overall Sexual Satisfaction, Change from Baseline to Week 5 Median [4]: 0.0
MGH-SFI 05: Overall Sexual Satisfaction, Week 5 Mean (SE) [4]: 3.6 (0.43)
MGH-SFI 05: Overall Sexual Satisfaction, Week 5 Median [4]: 4.0
MGH-SFI 06: Overall Improvement Since Last Medication Change, Week 5 Mean (SE) [4]: 3.0 (0.24)
MGH-SFI 06: Overall Improvement Since Last Medication Change, Week 5 Median [4]: 3.0
MGH-SFI 04: (Men) Ability to Get and Maintain an Erection, Effect Size (Cohen's d) (subgroup <=50 years old, Stage 1, PIM 34 mg vs placebo): 0.877
